Data published in a melting point compilation (Tetko et al.; mined from patent text by program, amines drawn as free bases though some values may be those of a salt).

melting point [°C]	Compound
162 to 165	CC(=O)OCc1nccc2[nH]c(=O)ccc12
297 to 298	O=C1c2ccccc2-c2cc(O)cc3cccc1c23
124	Cc1c(CCCC(=O)O)cccc1C(=O)c1ccc(Cl)cc1
91.5 to 92.5	CCOc1nc(Cc2ccc(Cl)cc2)nc(O)c1NC(=O)c1ccco1
114 to 120	CCOC(=O)C1=Cc2cc(C(O)C(F)(F)F)ccc2OC1C(F)(F)F (centres undefined)
139 to 141	COc1ccc(C=C(C#N)c2ccc(F)cc2)cc1OC1CCCC1
142	Cc1cccc(NC(=O)NCC(=O)N(CC(=O)OC(C)(C)C)c2ccc3c(c2)OCO3)c1
93	CNc1cc(Cl)cc(NCCOC)c1[N+](=O)[O-]
111 to 113	O=C(NCCCn1ccnc1)c1ccco1
213 to 214	CCCNC(=O)Nc1ccc(N)cc1C(=O)NCC1CCN(C(c2ccccc2)c2ccccc2)CC1
212 to 213	COCc1c(C(=O)NN)ncc2[nH]c3cccc(OCc4ccccc4)c3c12
175	CC1=CC(=O)c2cc(O)ccc2C1=O
132 to 134	CCn1cc(C(=O)OC)c(=O)cc1-c1ccc(N(C)C)c(C)c1
102 to 104	C[Si](Cn1ncnc1I)(c1ccc(F)cc1)c1ccc(F)cc1
70 to 75	CCc1cccc(-c2ccc(S(=O)(=O)N3c4ccccc4CC3C(=O)NCc3ccc(CC(=O)OC)cc3)cc2)c1 (centres undefined)
191 to 194	CC1OCC(=O)N(C(=O)O)C1c1ccc(F)c(F)c1 (single isomer, unassigned; (+))
265 to 267	Cc1c(-c2ccncc2)[nH]c(-c2ccncc2)c1C(=O)OC(C)(C)C
154 to 155	Cc1cccc(C(O)COc2ccc(CC3SC(=O)NC3=O)cc2)n1 (centres undefined)
280 to 282	CC(C)c1cc2c(=O)n3cc(C(N)=O)ccc3nc2s1
222 to 225	O=c1cc(SCc2ccc(O)cc2)oc2cc(O)cc(O)c12
150 to 151	CC(=O)OC(C)(C)c1nnc(-c2ccc3ncn(-c4ccc(OC(F)(F)F)cc4)c3c2)o1
127 to 128	Cc1oc(-c2ccccc2)nc1CCOc1ccc(/C=C/CO)cc1
183	c1ccc(C(c2ccc3[nH]nnc3c2)n2cncn2)cc1 (centres undefined)
220 to 222	CC(=C1SC(=O)NC1=O)c1ccc(OCCOc2c(-c3ccc(F)cc3)n(C)c3ccccc3c2=O)c(F)c1

melting point [°C]	Compound
215	O=C(NC1CC1)N1CCc2[nH]cnc2C1
151 to 152	CC(=O)Nc1ccccc1OC(CCc1ccc(Cl)cc1)Cn1ccnc1 (centres undefined)
109 to 112	O=C(NN=Cc1ccc2cc(OC(=O)c3ccc([N+](=O)[O-])o3)ccc2c1)OCc1ccccc1
202 to 204	Cc1ccc(F)c(CSc2nc(N[C@H](C)CO)c3ncc(=O)[nH]c3n2)c1
183 to 187	OCc1cn(-c2ccc3ncccc3c2)cn1
157	CCOC(=O)C(C#N)=Cc1ccc(NC(=O)CC[Si](C)(C)C)cc1
82 to 83	CC(C)(Cl)C(=O)c1ccc(C(=O)c2ccc(C(=O)C(C)(C)Cl)cc2)cc1
109 to 110	COc1cccc2cc(C(=O)Nc3ccc(-n4nc(C(F)(F)F)cc4C(F)(F)F)cc3)oc12
139	CC(C)=CCN1CCn2c(=O)[nH]c3cc(Cl)cc(c32)C1C (centres undefined)
146 to 147	NC(=O)N(O)Cc1ccc(OCCc2csc(-c3ccc(C(F)(F)F)cc3)n2)cc1
240 to 241	CCn1c(=O)[nH]c2ncccc2c1=O
83 to 91	CC(CCc1cc2cccnc2n(-c2cccc(N)c2)c1=O)c1ccncc1 (centres undefined)
254 to 255	O=S(=O)(O)c1ccc(O)c(O)c1
131 to 133	CCC(C)(Oc1ccc(CC(=O)Nc2cc(C)cc(C)c2)cc1)C(=O)O (centres undefined)
170	CCCCc1[nH]c2ccc(OC)cc2c1C(=O)c1ccc(OC)cc1
122 to 124	C[C@H]1C[C@@]2(N)CN(c3c(F)cc4c(=O)c(C(=O)O)cn5c4c3OC[C@@H]5C)C[C@@H]12
155 to 156	Cc1cc(Cl)ccc1NC(=N)Nc1ncccc1OCc1c(F)cccc1Cl
194 to 197	CCOC1=CC(=O)CC(c2ccccc2O)C1 (centres undefined)
94	O=C(O)CCNc1ccccc1CNC(=O)C1Cc2ccccc2N1S(=O)(=O)c1ccc(-c2cccc(C(F)(F)F)c2)cc1 (centres undefined)
> 300	N=C(N)c1ccnc(-c2ccc(-c3ccc(-c4cc(C(=N)N)ccn4)s3)s2)c1
155 to 157	CCCn1nc2c(N)nc3ccccc3c2c1CCCCS(C)(=O)=O
154 to 156	CC(C)c1ccc2c(c1)c(Sc1nc3cc(Cl)ccc3s1)c(CC(C)(C)C(=O)O)n2Cc1ccc(Cl)cc1
268	CC(=O)Nc1ccc(Nc2c(NCc3ccccc3)cc(C(=O)O)cc2S(=O)(=O)Nc2ccccc2NC(C)=O)cc1
175 to 176	CSc1coc2cc(NS(C)(=O)=O)c(Oc3ccccc3)cc2c1=O

Second part, the molecule before the results:

Compound	melting point [°C]
CC(=O)OCc1ccc2oc(=O)c(C(=O)Oc3cc(F)ccc3[N+](=O)[O-])cc2c1	157 to 161
CC(C)c1ccc(N(C)C(=O)Cn2cnc3c2c(=O)n(C)c(=O)n3C)cc1	231 to 233
Cc1nc(Nc2ccccc2)sc1-c1ccnc(Nc2ccc(N3CCN(Cc4ccccc4)CC3)cc2)n1	227 to 229
O=S(=O)(Cl)c1c(Cl)cc(F)cc1Cl	57
CCn1c(-c2ccc3c(c2)OCCO3)cc(=Nc2c(C)cc(C)cc2C)n(C)c1=O	75 to 82
Cc1ccc(C(=O)Nc2ccc(S(N)(=O)=O)cc2)c(SSc2cc(C)ccc2C(=O)Nc2ccc(S(N)(=O)=O)cc2)c1	319 to 320
Cc1nc2ccc3c(c2s1)C(=O)CC3	163 to 165
N#Cc1cc2cccnc2nc1O	300
Cc1cc(C)c2cc(-c3ccccc3)c(=O)n(CCN(C)C)c2n1	135 to 137
O=C1CCOc2ccc([N+](=O)[O-])cc21	171 to 173
CC(C)Cn1c(=O)n(C)c(=O)c2c(SCCC(C)O)c(Cc3cccc4ccccc34)sc21 (centres undefined)	162 to 163
COC1C=Cc2ccccc2C1(Nc1ccccc1C)C(N)=S (centres undefined)	162
COC(=O)CCc1ccccc1Cc1ccccc1C(=O)O	123 to 126
CC1(c2ccccc2)OCC(=O)N(CCCN2C(=O)c3ccccc3C2=O)c2ccc(Cl)cc21 (centres undefined)	151 to 153
CCOC(C(=O)O)c1ccc2c(c1)C(C)(C)CCC2(C)C (racemic)	106 to 109
c1cc(CN2CCOCC2)c(CN2CCOCC2)s1	58 to 60
FC(F)(F)c1cccc(-c2nnc(Cl)cc2Cl)c1	80 to 81.5
CCNC(=S)NCc1ccc(/C=C/C(c2cc(Cl)c(Cl)c(Cl)c2)C(F)(F)F)cc1Cl (centres undefined)	88 to 91
COc1ccc(-c2cc(C(F)(F)F)n(C)c2-c2ccc(OC)cc2)cc1	125 to 126
CCCCCCCCCCCCCCCCCCSC(C)(C)C(=O)CC(=O)OCC	34 to 37
CCOc1nc(Br)cnc1N	84
CCc1oc2ccccc2c1C(=O)NCc1ccc2cc(O)ccc2c1	203 to 205
CC(C)n1nc(-c2sc(N)nc2-c2ccccc2F)ccc1=O	233 to 235
CCC(Cc1ccccc1-c1ccccc1)C(=O)O (centres undefined)	91.2 to 94
CC(C)(C)OC(=O)Nc1cn(-c2cccnc2)nc1Cl	125 to 128
CCCCCCCCCCN(C[C@H]1CC[C@H](CN(CCCCCCCCCC)C(=O)Nc2ccc(N(C)C)cc2)CC1)C(=O)Nc1ccc(N(C)C)cc1	125 to 127

Compound	melting point [°C]
CCS(=O)(=O)N1CCN(c2ccc(NC(=O)c3cc(=O)c4cc(F)cc(N5CCN(C)CC5)c4o3)cc2)CC1	233 to 234
C#CC[C@]12CCC(=O)C=C1CC[C@@H]1[C@@H]2CC[C@]2(C)C(=O)CC[C@@H]12	174 to 175
CSC(C)(C(=O)O)c1cccc(Oc2ccccc2)c1 (centres undefined)	87 to 88
CCOC(=O)C1=C(C)NC(CSc2ncccn2)=C(C(=O)OCC)C1c1cccc([N+](=O)[O-])c1 (centres undefined)	115 to 117
COc1cc(OCCCN2CCN(c3nn(C(=O)c4ccccc4)c4cc(F)ccc34)CC2)ccc1C(C)=O	138 to 140
COCOc1ccc(/C=C/C(=O)/C=C/c2ccc(OCOC)c(OCOC)c2)cc1OCOC	86 to 88
CCC1C(C)=NN=C(c2ccc(OC)c(O)c2)c2cc(O)c(OC)cc21 (centres undefined)	143 to 145
COc1ccc(CNc2ncccc2C(=O)Nc2cccc(C(F)(F)F)c2)cn1	185
O=C(O)Cc1ccc(CN2CCN(c3ccccc3C(=O)O)CC2)cc1	179 to 181
CCOC(=O)C1=C(N)NC(N)=C(C(=O)OCC)C1c1cccc(C(=O)OCC)c1	191
O=C1CCCc2snc(Cl)c21	84 to 85
CC1=C(C#CC(C)C=CO)C(C)(C)CCC1=O (centres undefined)	102 to 105
Cc1c(-c2ccccc2)c(C2=CC(N(C)C)CC2)c2oc(C3CC3)nc2c1C#N (centres undefined)	144 to 146
COc1ccc(C(=O)c2ccon2)cc1	71 to 73
CCN(CC1(C(F)(F)F)c2cc(Cl)ccc2Nc2ncccc21)C(C)C (centres undefined)	140 to 141
CN1CCC(OC2c3cccc(Br)c3CCn3cc(-c4ccccc4)nc32)CC1 (centres undefined)	83
Cc1onc(NS(=O)(=O)c2cccc([N+](=O)[O-])c2)c1Br	137 to 139
CC(=O)c1ccc(Cc2c(Cl)cc(N)cc2Cl)cc1	97 to 98
Clc1ccc2c3c(cccc13)-c1ccccc1-2	95 to 98
CCC1(CC)C(=O)c2cc(OCC(=O)O)c(C)c(C)c2C1=O	134 to 136
BrCc1ccc2ocnc2c1	90 to 93
O=S1(=O)NCN(C2CC2)c2c(C(F)(F)F)cccc21	165 to 167
OCc1cc2c(cn1)[nH]c1ccccc12	228 to 230
O=C1Nc2ccc(Br)cc2C(c2ccccc2)=NC1O (centres undefined)	190 to 192
COC(=O)c1ncoc1-c1cc(OC)c(OC)c(OC)c1	175 to 176
